The text below walks through data of patent US4239887A, “Pyridothienotriazines” (USV Pharmaceutical Corporation, priority 1979, dated 1980).

Assay [1] can be described thus: oral anti-allergy activity in standard tests. As to conditions: standard tests for anti-allergy activity. It counts as in vivo.
Assay [2] deals with formation of a wheal (Rat Passive Cutaneous Anaphylaxis). Put plainly: Rat Passive Cutaneous Anaphylaxis (PCA) Screen, inhibition of wheal formation. It counts as in vivo. As to conditions: for ED50: oral (p.o.), rat PCA, read-out: ED50 (dose required to give 50% reduction in wheal size). The source says: The compounds of this invention have potent activity in inhibiting the formation of a wheal when screened according to the Rat Passive Cutaneous Anaphylaxis Screen as is described by I. Mota, Life Sciences, 7, 465 (1963) and Z. Ovary, et al., Proceedings of Society of Experimental Biology and Medicine, 81, 584 (1952).
The activities are given as ED50 values, which are the doses required to give 50% reductions in wheal size.

In the case of `Oc1nnnc2c1sc1ncccc12` [4-Hydroxy-pyrido[3',2':4,5]thieno[3,2-d]-1,2,3-triazine, reference compound], in assay [1], the “anti-allergy activity (in words)” value is “essentially inactive”. In addition, the “inhibition of wheal size” value in assay [2] (tested at 25 mg/kg, p.o.) is given as 31%.

As usually defined, the ED50 is the dose that gives a 50% effect, or the effect in half of the subjects. In the case of `Cc1cc(C)c2c(n1)sc1c(O)nnnc12` [7,9-diCH3, OH, 4-Hydroxy-7,9-dimethylpyrido[3',2':4,5]thieno[3,2-d]-1,2,3-triazine], the ED50 in assay [2] turned out to be 5.6 mg/kg.

In the case of `Cc1ccc2c(n1)sc1cnnnc12` [7-CH3, H, 7-Methylpyrido[3',2':4,5]thieno[3,2-d]-1,2,3-triazine], the ED50 in assay [2] was 1 mg/kg.

On to `Cc1ccc2c(n1)sc1c(O)nnnc12` [7-CH3, OH, 4-Hydroxy-7-methylpyrido[3',2':4,5]thieno[3,2-d]-1,2,3-triazine], for which the ED50 in assay [2] worked out at 6 mg/kg.

Consider `Oc1nnnc2c1sc1nc(-c3ccccc3)ccc12` [7-phenyl, OH, 4-Hydroxy-7-phenylpyrido[3',2':4,5]thieno[3,2-d]-1,2,3-triazine], for which the ED50 in assay [2] came to 0.74 mg/kg.
